Laboratory results taken from the NIST ThermoML archive (doi:10.1016/j.jct.2017.03.026).
Several values for one entry are separate records, joined by “and”; a condition that tells them apart may be missing. Equal values may be shown once.

Experiment: molar heat capacity at constant pressure
Details: 101.33 kPa, Crystal, Small (less than 1 g) adiabatic calorimetry

O.O.O.O.O.O=S(=O)([O-])[O-].[Cu+2] [copper(II) sulfate pentahydrate]
Details	molar heat capacity at constant pressure
263.9 K	273.18 J/K/mol
263.97 K	273.31 J/K/mol
264.29 K	274.33 J/K/mol
264.46 K	276.88 J/K/mol
264.57 K	275.1 J/K/mol
264.65 K	275.18 J/K/mol
264.69 K	262.84 J/K/mol
264.78 K	276.45 J/K/mol
264.88 K	264.12 J/K/mol
264.96 K	275.1 J/K/mol
265.24 K	276.28 J/K/mol
265.28 K	276.6 J/K/mol
265.59 K	277.08 J/K/mol
265.9 K	279.45 J/K/mol
265.91 K	277.83 J/K/mol and 277.48 J/K/mol
266.22 K	277.65 J/K/mol
266.54 K	279.67 J/K/mol
266.57 K	280.8 J/K/mol
266.85 K	280.57 J/K/mol
267.02 K	283.47 J/K/mol
267.12 K	265.84 J/K/mol
267.16 K	281.25 J/K/mol
267.24 K	282.99 J/K/mol
267.47 K	265.72 J/K/mol
267.48 K	282.69 J/K/mol
267.49 K	288.14 J/K/mol
267.79 K	284.49 J/K/mol
267.89 K	286.74 J/K/mol
268.1 K	286.29 J/K/mol
268.14 K	289.09 J/K/mol
268.41 K	287.96 J/K/mol
268.56 K	290.56 J/K/mol
268.72 K	290.51 J/K/mol
269.03 K	293.88 J/K/mol
269.21 K	298.25 J/K/mol
269.26 K	299.3 J/K/mol
269.34 K	297.25 J/K/mol
269.69 K	302.97 J/K/mol
269.86 K	308.74 J/K/mol
270 K	267.7 J/K/mol and 309.44 J/K/mol
270.26 K	267.96 J/K/mol
270.3 K	319.67 J/K/mol
270.38 K	339.72 J/K/mol and 332.91 J/K/mol
270.48 K	333.13 J/K/mol
270.59 K	334.95 J/K/mol
270.88 K	351.88 J/K/mol
271.09 K	383.64 J/K/mol
271.16 K	376.43 J/K/mol
271.44 K	383.42 J/K/mol
271.46 K	344.42 J/K/mol
271.62 K	269.24 J/K/mol
271.71 K	298.82 J/K/mol
271.74 K	277.83 J/K/mol
272.06 K	278.7 J/K/mol
272.36 K	280.4 J/K/mol
272.37 K	278.52 J/K/mol
272.63 K	281.05 J/K/mol
272.69 K	278.7 J/K/mol
273.01 K	279.65 J/K/mol
273.04 K	280.4 J/K/mol
273.15 K	269.83 J/K/mol and 270.1 J/K/mol
273.27 K	284.34 J/K/mol
273.33 K	280.47 J/K/mol
273.64 K	279.37 J/K/mol
273.74 K	281.2 J/K/mol
273.8 K	282.84 J/K/mol
273.88 K	270.91 J/K/mol
273.96 K	280.1 J/K/mol
274.28 K	278.85 J/K/mol
274.4 K	281.05 J/K/mol
274.64 K	282.74 J/K/mol
274.93 K	283.52 J/K/mol
274.96 K	280.85 J/K/mol
275.07 K	282.49 J/K/mol
275.27 K	285.02 J/K/mol
275.6 K	285.39 J/K/mol
275.73 K	282.32 J/K/mol
275.91 K	281.82 J/K/mol
275.93 K	272.18 J/K/mol
276.06 K	284.92 J/K/mol
276.14 K	271.78 J/K/mol
276.23 K	282.52 J/K/mol
276.26 K	287.86 J/K/mol
276.39 K	283.24 J/K/mol
276.54 K	281.92 J/K/mol
276.86 K	283.12 J/K/mol
277.05 K	284.94 J/K/mol
277.17 K	283.69 J/K/mol
277.18 K	287.21 J/K/mol
277.48 K	283.57 J/K/mol
277.71 K	285.67 J/K/mol
277.8 K	284.34 J/K/mol
278.11 K	284.89 J/K/mol
278.31 K	288.04 J/K/mol
278.37 K	287.66 J/K/mol
278.38 K	274.55 J/K/mol
278.43 K	285.39 J/K/mol
278.71 K	274.33 J/K/mol
278.74 K	285.79 J/K/mol
279.05 K	283.84 J/K/mol
279.06 K	284.24 J/K/mol
279.23 K	285.22 J/K/mol
279.37 K	283.12 J/K/mol
279.45 K	283.07 J/K/mol
279.71 K	282.87 J/K/mol
279.74 K	283.84 J/K/mol
280 K	275.2 J/K/mol
280.05 K	283.69 J/K/mol
280.37 K	283.64 J/K/mol
280.38 K	282.97 J/K/mol
280.57 K	284.27 J/K/mol
280.66 K	275.03 J/K/mol
280.69 K	284.49 J/K/mol
281.02 K	283.67 J/K/mol
281.05 K	283.87 J/K/mol
281.33 K	283.77 J/K/mol
281.48 K	276.46 J/K/mol
281.65 K	284.82 J/K/mol
281.7 K	285.57 J/K/mol
281.71 K	285.19 J/K/mol
281.97 K	283.94 J/K/mol
282.27 K	286.17 J/K/mol
282.29 K	285.04 J/K/mol
282.39 K	285.19 J/K/mol
282.6 K	284.74 J/K/mol
282.84 K	286.54 J/K/mol
282.91 K	276.63 J/K/mol
282.92 K	285.39 J/K/mol
283.05 K	284.89 J/K/mol
283.24 K	285.54 J/K/mol
283.56 K	286.89 J/K/mol
283.72 K	285.69 J/K/mol
283.88 K	287.24 J/K/mol
283.97 K	287.54 J/K/mol
284.2 K	286.71 J/K/mol
284.24 K	278.43 J/K/mol
284.43 K	286.89 J/K/mol
284.52 K	286.41 J/K/mol
284.89 K	287.61 J/K/mol
285.09 K	286.69 J/K/mol
285.11 K	288.04 J/K/mol
285.16 K	279.3 J/K/mol
285.21 K	287.79 J/K/mol
285.23 K	288.34 J/K/mol
285.54 K	287.61 J/K/mol
285.76 K	287.46 J/K/mol
285.86 K	289.01 J/K/mol
286.18 K	287.86 J/K/mol
286.25 K	289.39 J/K/mol
286.42 K	287.76 J/K/mol
286.51 K	286.29 J/K/mol
286.83 K	288.26 J/K/mol
287 K	280.48 J/K/mol
287.09 K	288.31 J/K/mol
287.16 K	288.41 J/K/mol
287.4 K	289.81 J/K/mol
287.46 K	280.82 J/K/mol
287.49 K	289.64 J/K/mol
